Columns and labels:
[1] = molecular target: human Orexin type 1 receptors (Homo sapiens (Human), UniProt O43613); experiment: Scintillation Proximity Assay (SPA) binding assay, [3H]SB-674042 displacement, CHO-hOX1 membranes
Description: Scintillation Proximity Assay (SPA) Binding Assays CHO cells stably transfected with human Orexin type 1 receptors (CHO-hOX1) or HEK-293 cells transiently transfected with human Orexin type 2 receptors (HEK-hOX2) were collected after 16 h induction with 5 mM sodium butyrate. […] The binding was performed in a final volume of 200 μl. 100 μl of hOX1 or hOX2 beads-membranes suspension were added to 100 μl of [^3H]SB-674042 or [^3H]EMPA solutions (radioligand concentration 2 nM final in the assay), into the 96-well Isoplates containing the 2 μl/well of compounds to be tested. Nonspecific binding was measured in the presence of 1 μM Almorexant. Assay plates were then incubated at room temperature for 3 h before being counted in a Microbeta scintillation counter (PerkinElmer). Data were analysed by non-linear regression analysis using XLfit Software.

[2] = molecular target: human Orexin type 2 receptors (Homo sapiens (Human), UniProt O43614); experiment: Scintillation Proximity Assay (SPA) binding assay, [3H]EMPA displacement, HEK-hOX2 membranes
Description: Scintillation Proximity Assay (SPA) Binding Assays
CHO cells stably transfected with human Orexin type 1 receptors (CHO-hOX1) or HEK-293 cells transiently transfected with human Orexin type 2 receptors (HEK-hOX2) were collected after 16 h induction with 5 mM sodium butyrate. The cell pellets were re-suspended, homogenized in 15 mM Tris/HCl pH=7.5, 1 mM EGTA, 0.3 mM EDTA, 2 mM MgCl2, protease inhibitors and centrifuged at 40,000 g (20 min, 4° C.). After re-suspension, homogenization and centrifugation as above, the final pellets were re-suspended in 75 mM Tris/HCl pH=7.5, 1 mM EGTA, 0.3 mM EDTA, 12.5 mM MgCl2, 250 mM Sucrose, protease inhibitors, divided into aliquots and frozen down at −80° C.
CHO-hOX1 cell membranes (6 μg ml^−1) or HEK-hOX2 membranes (8 μg ml^−1) were pre-coupled with 1.0 mg ml^−1 of Wheatgerm Agglutinin-coated Yttrium Silicate (YSi-WGA) SPA beads (Perkin Elmer) in buffer containing 25 mM HEPES pH=7.4, 1 mM CaCl2), 5 mM MgCl2, 0.01% (w/v) BSA, 0.02% (w/v) Pluronic F-127 by shaking at room temperature for 2.5-3 h.
The binding was performed in a final volume of 200 μl. 100 μl of hOX1 or hOX2 beads-membranes suspension were added to 100 μl of [^3H]SB-674042 or [^3H]EMPA solutions (radioligand concentration 2 nM final in the assay), into the 96-well Isoplates containing the 2 μl/well of compounds to be tested. Nonspecific binding was measured in the presence of 1 μM Almorexant. Assay plates were then incubated at room temperature for 3 h before being counted in a Microbeta scintillation counter (PerkinElmer).
Data were analysed by non-linear regression analysis using XLfit Software.

Chain of human Orexin type 1 receptors (O43613 whole entry): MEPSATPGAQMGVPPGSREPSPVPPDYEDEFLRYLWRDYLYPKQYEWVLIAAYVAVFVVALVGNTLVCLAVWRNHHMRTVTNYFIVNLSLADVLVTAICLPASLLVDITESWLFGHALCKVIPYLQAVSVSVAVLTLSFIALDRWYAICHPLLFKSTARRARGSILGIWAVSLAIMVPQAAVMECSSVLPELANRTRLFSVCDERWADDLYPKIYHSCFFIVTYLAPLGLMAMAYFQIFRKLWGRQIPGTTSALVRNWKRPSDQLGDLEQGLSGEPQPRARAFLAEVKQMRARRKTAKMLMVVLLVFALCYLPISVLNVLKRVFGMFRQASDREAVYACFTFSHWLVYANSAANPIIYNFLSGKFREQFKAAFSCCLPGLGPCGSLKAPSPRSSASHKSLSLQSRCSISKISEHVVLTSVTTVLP
Chain of human Orexin type 2 receptors (O43614 whole entry): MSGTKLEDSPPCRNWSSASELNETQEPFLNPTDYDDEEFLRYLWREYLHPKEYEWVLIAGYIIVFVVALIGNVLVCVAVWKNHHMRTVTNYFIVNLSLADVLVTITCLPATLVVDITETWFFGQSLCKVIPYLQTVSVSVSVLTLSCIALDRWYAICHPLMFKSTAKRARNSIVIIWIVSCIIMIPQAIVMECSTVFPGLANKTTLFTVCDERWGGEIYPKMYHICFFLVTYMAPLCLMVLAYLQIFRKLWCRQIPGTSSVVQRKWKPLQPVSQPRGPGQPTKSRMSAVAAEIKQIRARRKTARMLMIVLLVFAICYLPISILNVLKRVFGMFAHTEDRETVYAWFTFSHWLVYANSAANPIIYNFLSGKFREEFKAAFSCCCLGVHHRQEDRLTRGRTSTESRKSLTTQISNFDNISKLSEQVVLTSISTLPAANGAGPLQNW

Compound | OX1 pKi (SPA binding) ([1]; Table 1, [3H]SB-674042 2 nM) | OX1 pKi (SPA binding) ([1]; Table 2, [3H]SB-674042 2 nM) | OX2 pKi (SPA binding) ([2]; Table 2, [3H]EMPA 2 nM) | other results
Cc1ccc(-n2nccn2)c(C(=O)N2C3CC(C3)[C@H](C)C2COc2ccc(Cl)cn2)n1 (stereo partly drawn) [Example 102, trans-3-{[(5-chloropyridin-2-yl)oxy]methyl}-4-methyl-2-[6-methyl-3-(2H-1,2,3-triazol-2-yl)pryidine-2-carbonyl]-2-azabicyclo[3.1.1]heptane] | 7.23 |  |  | OX2 pKi (SPA binding) ([2]; Table 1, [3H]EMPA 2 nM): 5.71
Cc1nc(C(=O)N2C(COc3ccc(Br)cc3)CC3CC2C3)c(-c2ccccc2)s1 (stereo not drawn) [Example 46] | 7.62 |  |  | OX2 pKi (SPA binding) ([2]; Table 1, [3H]EMPA 2 nM): 6.51
Cc1ccc(-n2nccn2)c(C(=O)N2C3CC(C3)[C@@H](C)C2CNc2nc3ccccc3o2)n1 (single isomer, unassigned) [Example 226, N-{[(3S,4R) or (3R,3S)-4-methyl-2-[6-methyl-3-(2H-1,2,3-triazol-2-yl)pyridine-2-carbonyl]-2-azabicyclo[3.1.1]heptan-3-yl]methyl}-1,3-benzoxazol-2-amine] |  | 8.46 | 5.39 | 
Cc1ccc(-n2nccn2)c(C(=O)N2C3CC(C3)[C@@H](C)C2CNc2cnc(C(F)(F)F)cn2)n1 (single isomer, unassigned) [Example 166, N-{[(3S,4R) or (3R,4S)-4-methyl-2-[6-methyl-3-(2H-1,2,3-triazol-2-yl)pyridine-2-carbonyl]-2-azabicyclo[3.1.1]heptan-3-yl]methyl}-5-(trifluoromethyl)pyrazin-2-amine] |  | 6.99 | 4.29 | 
Cc1ccc(-n2nccn2)c(C(=O)N2C3CC(C3)[C@@H](C)C2COc2ccc(Cl)cn2)n1 (stereo partly drawn) [Example 99, cis-3-{[(5-chloropyridin-2-yl)oxy]methyl}-4-methyl-2-[6-methyl-3-(2H-1,2,3-triazol-2-yl)pyridine-2-carbonyl]-2-azabicyclo[3.1.1]heptane] | 7.37 |  |  | OX2 pKi (SPA binding) ([2]; Table 1, [3H]EMPA 2 nM): 6.18
O=C(c1nc(C2CC2)sc1-c1ccccc1)N1C(COc2ccc(F)cc2)CC2CC1C2 (stereo not drawn) [Example 53] | 7.58 |  |  | OX2 pKi (SPA binding) ([2]; Table 1, [3H]EMPA 2 nM): 7.13
C[C@@H]1C2CC(C2)N(C(=O)c2cc(F)ccc2-n2nccn2)C1CNc1nc2ccc(F)cc2s1 (mixture of isomers) [Example 168, cis-6-fluoro-N-({2-[5-fluoro-2-(2H-1,2,3-triazol-2-yl)benzoyl]-4-methyl-2-azabicyclo[3.1.1]heptan-3-yl}methyl)-1,3-benzothiazol-2-amine] |  | 8.46 | 5.88 | 
C[C@@H]1C2CC(C2)N(C(=O)c2cc(F)ccc2-n2nccn2)C1CNc1cnc(C2CC2)cn1 (stereo partly drawn) [Example 258] |  | 7.07 | 5.35 | 
Cc1nc(C(=O)N2C(COc3ccc(F)cc3)CC3CC2C3)c(-c2ccc(F)cc2)s1 (stereo not drawn) [Example 50] | 7.66 |  |  | OX2 pKi (SPA binding) ([2]; Table 1, [3H]EMPA 2 nM): 6.52
Cc1ccc(-n2nccn2)c(C(=O)N2C3CC(C3)[C@@H](C)C2CNc2nc3ccccc3o2)n1 (single isomer, unassigned) [Example 227, N-{[(3R,4S) or (3S,4R)-4-methyl-2-[6-methyl-3-(2H-1,2,3-triazol-2-yl)pyridine-2-carbonyl]-2-azabicyclo[3.1.1]heptan-3-yl]methyl}-1,3-benzoxazol-2-amine] |  | 7.11 | 4.9 | 
Cc1ccc(-n2nccn2)c(C(=O)N2C3CC(C3)[C@@H](C)C2CNc2nc3ccc(F)cc3o2)n1 (mixture of isomers) [Example 218, cis-6-fluoro-N-({4-methyl-2-[6-methyl-3-(2H-1,2,3-triazol-2-yl)pyridine-2-carbonyl]-2-azabicyclo[3.1.1]heptan-3-yl}methyl)-1,3-benzoxazol-2-amine] |  | 8.33 | 5.47 | 
Cc1ccc(-c2sc(C)nc2C(=O)N2C3CC(C3)[C@@H](C)C2COc2ccc(F)cc2)cn1 (stereo partly drawn) [Example 143, cis-3-[(4-fluorophenoxy)methyl]-4-methyl-2-[2-methyl-5-(6-methylpyridin-3-yl)-1,3-thiazole-4-carbonyl]-2-azabicylco[3.1.1]heptane] |  | 7.14 | 5.93 | 
Cc1cnc(NCC2[C@H](C)C3CC(C3)N2C(=O)c2nc(C)ccc2-n2nccn2)cn1 (mixture of isomers) [Example 216, cis-5-methyl-N-({4-methyl-2-[6-methyl-3-(2H-1,2,3-triazol-2-yl)pyridine-2-carbonyl]-2-azabicyclo[3.1.1]heptan-3-yl}methyl)pyrazin-2-amine] |  | 6.94 | 4.62 | 
C[C@@H]1C2CC(C2)N(C(=O)c2cc(Cl)ccc2-n2nccn2)C1CNc1ncc(C(F)(F)F)cn1 (single isomer, unassigned) [Example 241, N-{[(3R,4S) or (3S,4R)-2-[5-chloro-2-(2H-1,2,3-triazol-2-yl)benzoyl]-4-methyl-2-azabicyclo[3.1.1]heptan-3-yl]methyl}-5-(trifluoromethyl)pyrimidin-2-amine] |  | 8.27 | 5.59 | 
C[C@@H]1C2CC(C2)N(C(=O)c2nn(C)cc2-c2ncccn2)C1CNc1cnc(C(F)(F)F)cn1 (mixture of isomers) [Example 245, cis-N-({4-methyl-2-[1-methyl-4-(pyrimidin-2-yl)-1H-pyrazole-3-carbonyl]-2-azabicyclo[3.1.1]heptan-3-yl}methyl)-5-(trifluoromethyl)pyrazin-2-amine] |  | 7.55 | 4.49 | 
C[C@@H]1C2CC(C2)N(C(=O)c2cc(Cl)ccc2-n2nccn2)C1CNc1cnc(C(F)(F)F)cn1 (mixture of isomers) [Example 203, cis-N-({2-[5-chloro-2-(2H-1,2,3-triazol-2-yl)benzoyl]-4-methyl-2-azabicyclo[3.1.1]heptan-3-yl}methyl)-5-(trifluoromethyl)pyrazin-2-amine] |  | 8.17 | 5.05 | 
Cc1nc(C(=O)N2C3CC(C3)[C@@H](C)[C@@H]2COc2cc3ccccc3cn2)c(-c2ccccc2)s1 (single isomer, unassigned) [Example 86, 3-{[(3R,4R or 3S,4S)-4-methyl-2-(2-methyl-5-phenyl-1,3-thiazole-4-carbonyl)-2-azabicyclo[3.1.1]heptan-3-yl]methoxy}isoquinoline] |  |  |  | Ki ([1]; Table 1, [3H]SB-674042 2 nM, read-out: OX1 pKi (SPA binding) (converted)): 89.1 nM; Ki ([2]; Table 1, [3H]EMPA 2 nM, read-out: OX2 pKi (SPA binding) (converted)): 1290 nM
Cc1ccc(-n2nccn2)c(C(=O)N2C3CC(C3)[C@@H](C)C2CNc2cnc3ccccc3n2)n1 (mixture of isomers) [Example 158, cis-N-({4-methyl-2-[6-methyl-3-(2H-1,2,3-triazol-2-yl)pyridine-2-carbonyl]-2-azabicyclo[3.1.1]heptan-3-yl}methyl)quinoxalin-2-amine] |  | 8.4 | 5.74 | 
C[C@@H]1C2CC(C2)N(C(=O)c2cc(Cl)ccc2-n2nccn2)C1CNc1cnc2cc(F)ccc2n1 (single isomer, unassigned) [Example 209, N-{[(3R,4R) or (3S,4R)-2-[5-chloro-2-(2H-1,2,3-triazol-2-yl)benzoyl]-4-methyl-2-azabicyclo[3.1.1]heptan-3-yl]methyl}-6-fluoroquinoxalin-2-amine] |  | 8.74 | 6.8 | 
O=C(c1nc(Cl)sc1-c1ccccc1)N1C(COc2ccc(F)cc2)CC2CC1C2 (stereo not drawn) [Example 51] | 7.22 |  |  | 

From patent publication US11660293B2, “Substituted 2-azabicyclo[3.1.1]heptane and 2-azabicyclo[3.2.1]octane derivatives as orexin receptor antagonists” (Chronos Therapeutics Limited, priority 2017, dated 2023)
